In ChEMBL document CHEMBL5154877, “Novel Sphingosine Kinase 1 Inhibitor Suppresses Growth of Solid Tumor and Inhibits the Lung Metastasis of Triple-Negative Breast Cancer” (J Med Chem, 2022):
Activity calls are given as the source filed them. The rule behind the calls is not given here.

Key:
[1] = tested on: HT-29; assay: Induction of apoptosis in human HT-29 cells assessed as increase in PARP cleavage at 30 uM measured after 48 hrs by western blot analysis; assay type: functional, cell-based
[2] = tested on: MDA-MB-231; assay: Induction of apoptosis in human MDA-MB-231 cells assessed as viable cells at 10 uM incubated for 48 hrs by Annexin V-FITC/PI staining based flow cytometry (reference value: 94.3 %); assay type: functional; details: read-out: Activity
[3] = tested on: MDA-MB-231; assay: Antimigratory activity against human MDA-MB-231 cells assessed as inhibition of cell migration in human MDA-MB-231 cells at 20 uM incubated for 15 hrs by wound healing assay; assay type: functional, cell-based
[4] = tested on: HT-29; assay: Induction of cell cycle arrest at G0/G1 phase in human HT-29 cells assessed as decrease in p-Rb expression at 10 to 30 uM incubated for 24 hrs by Western blot analysis; assay type: functional, cell-based; details: dose 10-30 µM
[5] = Bioavailability in mouse at 50 mg/kg, ip; assay type: ADME, organism-based; details: in vivo
[6] = tested on: HT-29; assay: Induction of cell cycle arrest in human HT-29 cells assessed as accumulation at G0/G1 phase at 10 uM incubated for 24 hrs by PI staining based flow cytometry; assay type: functional
[7] = Half life in mouse at 50 mg/kg, ip; assay type: ADME, organism-based; details: in vivo
[8] = tested on: MDA-MB-231; assay: Antimetastatic activity against human MDA-MB-231 cells xenografted in BALB/c mouse assessed as decrease in plasma S1P levels at 75 mg/kg, ip for 28 days; assay type: functional, organism-based; details: time 28.0 day
[9] = AUClast in mouse at 50 mg/kg, po; assay type: ADME, organism-based; parameters: time 0 - last, dose 50 mg/kg, route po; details: in vivo
[10] = tested on: MDA-MB-231; assay: Antimetastatic activity against human MDA-MB-231 cells […] assessed as inhibition of NF-kappaB p65 phosphorylation at 30 uM incubated for 2 to 12 hrs by Western blot analysis; assay type: functional, cell-based; details: time 2-12 hrs
[11] = tested on: HT-29; assay: Induction of cell cycle arrest at G0/G1 phase in human HT-29 cells assessed as reduction in cyclinA expression at 10 to 30 uM incubated for 24 hrs by Western blot analysis; assay type: functional, cell-based; details: dose 10-30 µM
[12] = tested on: HT-29; assay: Induction of cell cycle arrest at G0/G1 phase in human HT-29 cells assessed as reduction in cyclinD1 expression at 10 to 30 uM incubated for 24 hrs by Western blot analysis; assay type: functional, cell-based; details: dose 10-30 µM
[13] = tested on: HT-29; assay: Induction of apoptosis in human HT-29 cells assessed as increase in caspase 3 cleavage at 30 uM measured after 48 hrs by western blot analysis; assay type: functional, cell-based
[14] = tested on: HT-29; assay: Induction of cell cycle arrest at G0/G1 phase in human HT-29 cells assessed as reduction in CDK6 expression at 10 to 30 uM incubated for 24 hrs by Western blot analysis; assay type: functional, cell-based; details: dose 10-30 µM
[15] = Tmax in mouse at 50 mg/kg, ip; assay type: ADME, organism-based; details: in vivo
[16] = tested on: MDA-MB-231; assay: Induction of apoptosis in human MDA-MB-231 cells assessed as necrotic cells at 30 uM incubated for 48 hrs by Annexin V-FITC/PI staining based flow cytometry (reference value: 1.42 %); assay type: functional
[17] = tested on: MDA-MB-231; assay: Induction of apoptosis in human MDA-MB-231 cells assessed as late apoptotic cells at 30 uM incubated for 48 hrs by Annexin V-FITC/PI staining based flow cytometry (reference value: 1.96 %); assay type: functional
[18] = AUClast in mouse at 50 mg/kg, ip; assay type: ADME, organism-based; parameters: time 0 - last, dose 50 mg/kg, route ip; details: in vivo
[19] = tested on: MDA-MB-231; assay: Antimigratory activity against human MDA-MB-231 cells assessed as reduction in cell migration at 20 uM incubated for 8 hrs by crystal violet staining microscopy based transwell migration assay; assay type: functional
[20] = tested on: MDA-MB-231; assay: Induction of apoptosis in human MDA-MB-231 cells assessed as late apoptotic cells at 10 uM incubated for 48 hrs by Annexin V-FITC/PI staining based flow cytometry (reference value: 1.96 %); assay type: functional
[21] = tested on: MDA-MB-231; assay: Antimetastatic activity against human MDA-MB-231 cells xenografted in BALB/c mouse assessed as decrease in plasma S1P levels at 50 mg/kg, ip for 28 days; assay type: functional, organism-based; details: time 28.0 day
[22] = tested on: HT-29; assay: Induction of apoptosis in human HT-29 cells at 30 uM incubated for 48 hrs by Annexin V-FITC/PI staining based flow cytometry relative to control; assay type: functional
[23] = AUClast in mouse at 2 mg/kg, iv; assay type: ADME, organism-based; parameters: time 0 - last, dose 2 mg/kg, route iv; details: in vivo
[24] = tested on: HT-29; assay: Induction of apoptosis in human HT-29 cells assessed as increase in caspase 8 cleavage at 30 uM measured after 48 hrs by western blot analysis; assay type: functional, cell-based
[25] = Cmax in mouse at 50 mg/kg, ip; assay type: ADME, organism-based; parameters: dose 50 mg/kg, route ip; details: in vivo
[26] = Oral bioavailability in mouse at 50 mg/kg; assay type: ADME, organism-based; details: in vivo
[27] = tested on: MDA-MB-231; assay: Antimetastatic activity against human MDA-MB-231 cells […] assessed as upregulation of phosphorylated beta-catenin at 30 uM incubated for 2 to 12 hrs by western blot analysis; assay type: functional, cell-based; details: time 2-12 hrs
[28] = Cmax in mouse at 50 mg/kg, po; assay type: ADME, organism-based; parameters: dose 50 mg/kg, route po; details: in vivo
[29] = tested on: MDA-MB-231; assay: Antimetastatic activity against human MDA-MB-231 cells […] assessed as downregulation of MMP-9 at 30 uM incubated for 2 to 12 hrs by western blot analysis; assay type: functional, cell-based; details: time 2-12 hrs
[30] = tested on: HT-29; assay: Antitumor activity against human HT-29 cells xenografted in BALB/c mouse assessed as tumor growth inhibition at 50 mg/kg/day, ip for 3 weeks and measured every 3 days by caliper method; assay type: functional, organism-based
[31] = Tmax in mouse at 50 mg/kg, po; assay type: ADME, organism-based; details: in vivo
[32] = Toxicity in BALB/c mouse xenografted with human MDA-MB-231 cells assessed as body weight change at 50 to 75 mg/kg, ip administrated for 28 days; assay type: organism-based; details: in vivo, 672 h, dose 50-75 mg/kg, time 28 day
[33] = tested on: MDA-MB-231; assay: Antitumor activity against human MDA-MB-231 cells xenografted in BALB/c mouse assessed as inhibition in lung metastasis at 75 mg/kg, ip treated for 28 days by H and E staining based assay; assay type: functional, organism-based; details: time 28.0 day
[34] = tested on: MDA-MB-231; assay: Antitumor activity against human MDA-MB-231 cells xenografted in BALB/c mouse assessed as tumor growth inhibition at 100 mg/kg/day, ip for 3 weeks and measured every 3 days by caliper method; assay type: functional, organism-based
[35] = Toxicity in BALB/c mouse xenografted with human HT-29 cells assessed as change in body weight at 50 mg/kg/day, ip for 3 weeks and measured every 3 days; assay type: organism-based; details: in vivo, 504 h
[36] = Clearance in mouse at 2 mg/kg, iv; assay type: ADME, organism-based; details: in vivo
[37] = tested on: HT-29; assay: Induction of cell cycle arrest at G1 phase in human HT-29 cells assessed as increase in P21 expression at 30 uM incubated for 24 hrs by Western blot analysis; assay type: functional, cell-based
[38] = tested on: MDA-MB-231; assay: Induction of apoptosis in human MDA-MB-231 cells assessed as early apoptotic cells at 30 uM incubated for 48 hrs by Annexin V-FITC/PI staining based flow cytometry (reference value: 2.35 %); assay type: functional
[39] = Half life in mouse at 2 mg/kg, iv; assay type: ADME, organism-based; details: in vivo
[40] = tested on: MDA-MB-231; assay: Induction of apoptosis in human MDA-MB-231 cells assessed as necrotic cells at 10 uM incubated for 48 hrs by Annexin V-FITC/PI staining based flow cytometry (reference value: 1.42 %); assay type: functional
[41] = Half life in mouse at 50 mg/kg, po; assay type: ADME, organism-based; details: in vivo
[42] = tested on: MDA-MB-231; assay: Induction of apoptosis in human MDA-MB-231 cells assessed as early apoptotic cells at 10 uM incubated for 48 hrs by Annexin V-FITC/PI staining based flow cytometry (reference value: 2.35 %); assay type: functional
[43] = tested on: HT-29; assay: Induction of cell cycle arrest in human HT-29 cells assessed as accumulation at G0/G1 phase at 30 uM incubated for 24 hrs by PI staining based flow cytometry; assay type: functional
[44] = tested on: HT-29; assay: Induction of cell cycle arrest at G0/G1 phase in human HT-29 cells assessed as reduction in cyclinE1 expression at 10 to 30 uM incubated for 24 hrs by Western blot analysis; assay type: functional, cell-based; details: dose 10-30 µM
[45] = tested on: MDA-MB-231; assay: Induction of cell cycle arrest at G0/G1 phase in human MDA-MB-231 cells at 20 uM incubated for 24 hrs by PI staining based flow cytometry; assay type: functional
[46] = tested on: MDA-MB-231; assay: Induction of apoptosis in human MDA-MB-231 cells assessed as viable cells at 30 uM incubated for 48 hrs by Annexin V-FITC/PI staining based flow cytometry (reference value: 94.3 %); assay type: functional; details: read-out: Activity
[47] = tested on: CAL-51; assay: Antimigratory activity against human CAL-51 cells assessed as inhibition in cell migration at 30 uM incubated for 16 hrs by crystal violet staining microscopy based transwell migration assay; assay type: functional
[48] = tested on: MDA-MB-231; assay: Antimetastatic activity against human MDA-MB-231 cells […] assessed as inhibition of FSCN1 phosphorylation at 30 uM incubated for 2 to 12 hrs by western blot analysis; assay type: functional, cell-based; details: time 2-12 hrs

**Q.** What does the source list for `Cc1cc(OCc2ccc(CN3CCC[C@@H]3CO)cc2)cc(CS(=O)(=O)c2ccccc2)c1Br`?
**A.** Activity [1]: Active; viability at 10 µM [2]: 65.4%; Activity [3]: Active; Activity [4]: Active; bioavailability [5]: 79%; Activity [6]: Active; half-life [7]: 4.2 h; Activity [8]: Active; AUC(0-t) [9]: 242 ng·h/mL; Activity [10]: Active; Activity [11]: Active; Activity [12]: Active; Activity [13]: Active; Activity [14]: Active; Tmax [15]: 0.18 h; Activity [16]: 6.82%; Activity [17]: 24.5%; AUC(0-t) [18]: 8060 ng·h/mL; Activity [19]: Active; Activity [20]: 9.16%; Activity [21]: Active; Activity [22]: 50%; AUC(0-t) [23]: 408 ng·h/mL; Activity [24]: Active; Cmax [25]: 7860 ng/mL; bioavailability [26]: 2.38%; Activity [27]: Active; Cmax [28]: 171 ng/mL; Activity [29]: Active; Activity [30]: Active; Tmax [31]: 0.83 h; Activity [32]: Non-Toxic; Activity [33]: Active; Activity [34]: Active; Activity [35]: Non-Toxic; clearance [36]: 81.1 mL/min/kg; Activity [37]: Active; Activity [38]: 32.2%; half-life [39]: 2.23 h; Activity [40]: 3.69%; half-life [41]: 8.13 h; Activity [42]: 3.67%; Activity [43]: Active; Activity [44]: Active; Activity [45]: Active; viability at 30 µM [46]: 36.4%; Activity [47]: Active; Activity [48]: Active
